# Assay results: patent US20200002303A1, “C-GLYCOSIDE COMPOUNDS USEFUL FOR TREATING DISEASE” (Fimbrion Therapeutics, Inc., priority 2016, published 2020)
# System: UTI89 bacteria
# Experiment: Biofilm inhibition assay with UTI89 bacteria
# Type: cell-based
# Conditions: read-out: Biofilm prevention IC50
# Procedure: The biofilm inhibition assay was performed with UTI89 bacteria as previously described (L. Cegelski, J. S. Pinkner, N. D. Hammer, C. K. Cusumano, C. S. Hung, E. Chorell, V. Aberg, J. N. Walker, P. C. Seed, F. Almqvist, M. R. Chapman, S. J. Hultgren Nature Chem. Biol. 2009, 5, 913-919). Compounds not listed were not tested.
row,SMILES,IC50 [nM]
1,"Cc1cc(-c2cccc3cnccc23)ccc1[C@@H](O)[C@H]1O[C@H](CO)[C@@H](O)[C@H](O)[C@@H]1O [Example 1, (2R,3S,4S,5S,6R)-2-((R)-hydroxy(4-(isoquinolin-5-yl)-2-methylphenyl)methyl)-6-(hydroxymethyl)tetrahydro-2H-pyran-3,4,5-triol]",600
2,"Cc1cc(-c2ccc3cc[nH]c(=O)c3c2)ccc1[C@@H](O)[C@H]1O[C@H](CO)[C@@H](O)[C@H](O)[C@@H]1O [Example 2, 7-(4-((R)-hydroxy((2R,3S,4S,5S,6R)-3,4,5-trihydroxy-6-(hydroxymethyl)tetrahydro-2H-pyran-2-yl)methyl)-3-methylphenyl)isoquinolin-1 (2H)-one]",30

# Molecular target: T1, FimH (Escherichia coli, UniProt Q1R2J4)
# T1 construct: performed with UTI89 bacteria and guinea pig red blood cells; endogenous in cells; host or cells: UTI89 bacteria (whole cells, type 1 piliated)
# Experiment: not given
# Type: cell-based
# Conditions: concentration reducing bacterial agglutination of guinea pig red blood cells by greater than 90%; UTI89 bacteria
# Procedure: The hemagglutination inhibition (HAI) assay was performed with UTI89 bacteria and guinea pig red blood cells, as previously described (S. J. Hultgren, W. R. Schwan, A. J. Schaeffer, J. L. Duncan Infect. Immun. 1986, 54, 613-620).
row,SMILES,HAI titer EC>90 [µM]
1,"Cc1cc(-c2cccc3cnccc23)ccc1[C@@H](O)[C@H]1O[C@H](CO)[C@@H](O)[C@H](O)[C@@H]1O [Example 1, (2R,3S,4S,5S,6R)-2-((R)-hydroxy(4-(isoquinolin-5-yl)-2-methylphenyl)methyl)-6-(hydroxymethyl)tetrahydro-2H-pyran-3,4,5-triol]",0.125
2,"Cc1cc(-c2ccc3cc[nH]c(=O)c3c2)ccc1[C@@H](O)[C@H]1O[C@H](CO)[C@@H](O)[C@H](O)[C@@H]1O [Example 2, 7-(4-((R)-hydroxy((2R,3S,4S,5S,6R)-3,4,5-trihydroxy-6-(hydroxymethyl)tetrahydro-2H-pyran-2-yl)methyl)-3-methylphenyl)isoquinolin-1 (2H)-one]",0.006
3,"Cc1cc(-c2ccc3ccn(C(C)C)c(=O)c3c2)ccc1[C@@H](O)[C@H]1O[C@H](CO)[C@@H](O)[C@H](O)[C@@H]1O [Example 31, 7-(4-((R)-Hydroxy ((2R,3S,4S,5S,6R)-3,4,5-trihydroxy-6-(hydroxymethyl)-tetrahydro-2H-pyran-2-yl)methyl)-3-methylphenyl)-2-isopropylisoquinolin-1 (2H)-one]",0.006
4,"Cc1cc(-c2ccc3c(c2)C(=O)N(C(C)C)CC3)ccc1[C@@H](O)[C@H]1O[C@H](CO)[C@@H](O)[C@H](O)[C@@H]1O [Example 32, 7-(4-((R)-Hydroxy ((2R,3S,4S,5S,6R)-3,4,5-trihydroxy-6-(hydroxymethyl)-tetrahydro-2H-pyran-2-yl)methyl)-3-methylphenyl)-2-isopropyl-3,4-dihydroisoquinolin-1 (2H)-one]",0.006
5,"O=C1NCCc2ccc(-c3ccc([C@@H](O)[C@H]4O[C@H](CO)[C@@H](O)[C@H](O)[C@@H]4O)c(C(F)(F)F)c3)cc21 [Example 33, 7-(4-((R)-Hydroxy ((2R,3S,4S,5S,6R)-3,4,5-trihydroxy-6-(hydroxymethyl)-tetrahydro-2H-pyran-2-yl)methyl)-3-(trifluoromethyl)phenyl)-3,4-dihydroisoquinolin-1 (2H)-one]",0.006
6,"O=C1NCCc2ccc(-c3ccc([C@H](O)[C@H]4O[C@H](CO)[C@@H](O)[C@H](O)[C@@H]4O)c(C(F)(F)F)c3)cc21 [Example 34, 7-(4-((S)-hydroxy ((2R,3S,4S,5S,6R)-3,4,5-trihydroxy-6-(hydroxymethyl)tetrahydro-2H-pyran-2-yl)methyl)-3-(trifluoromethyl)phenyl)-3,4-dihydroisoquinolin-1 (2H)-one]",3
7,"CNC(=O)c1cncc(-c2ccc([C@@H](O)[C@H]3O[C@H](CO)[C@@H](O)[C@H](O)[C@@H]3O)c(C)c2)c1 [Example 35, 5-(4-((R)-Hydroxy ((2R,3S,4S,5S,6R)-3,4,5-trihydroxy-6-(hydroxymethyl)-tetrahydro-2H-pyran-2-yl)methyl)-3-methylphenyl)-N-methylnicotinamide]",0.01
8,"Cc1cc(-c2cn3ccccc3n2)ccc1[C@@H](O)[C@H]1O[C@H](CO)[C@@H](O)[C@H](O)[C@@H]1O [Example 36, (2R,3S,4S,5S,6R)-2-((R)-Hydroxy (4-(imidazo[1,2-a]pyridin-2-yl)-2-methylphenyl)methyl)-6-(hydroxymethyl)-tetrahydro-2H-pyran-3,4,5-triol]",0.019
9,"Cc1cc(-c2cccc(C(=O)Nc3ccccn3)c2)ccc1[C@@H](O)[C@H]1O[C@H](CO)[C@@H](O)[C@H](O)[C@@H]1O [Example 37, 4′-((R)-Hydroxy ((2R,3S,4S,5S,6R)-3,4,5-trihydroxy-6-(hydroxymethyl)-tetrahydro-2H-pyran-2-yl)methyl)-5′-methyl-N-(pyridin-2-yl)biphenyl-3-carboxamide]",0.012
10,"CNC(=O)c1cc(C(=O)NC)cc(-c2ccc([C@@H](O)[C@H]3O[C@H](CO)[C@@H](O)[C@H](O)[C@@H]3O)c(C)c2)c1 [Example 38, 4′-((R)-Hydroxy ((2R,3S,4S,5S,6R)-3,4,5-trihydroxy-6-(hydroxymethyl)-tetrahydro-2H-pyran-2-yl)methyl)-N^3,N^5,3′-trimethylbiphenyl-3,5-dicarboxamide]",0.007
11,"CNC(=O)c1cccc(-c2ccc([C@@H](O)[C@H]3O[C@H](CO)[C@@H](O)[C@H](O)[C@@H]3O)c(C(F)(F)F)c2)c1 [Example 39, 4′-((R)-Hydroxy ((2R,3S,4S,5S,6R)-3,4,5-trihydroxy-6-(hydroxymethyl)-tetrahydro-2H-pyran-2-yl)methyl)-N-methyl-5′-(trifluoromethyl)biphenyl-3-carboxamide]",0.015
12,"Cc1cc(-c2cccc(C(=O)N(C)C)c2)ccc1[C@@H](O)[C@H]1O[C@H](CO)[C@@H](O)[C@H](O)[C@@H]1O [Example 41, 4′-((R)-Hydroxy ((2R,3S,4S,5S,6R)-3,4,5-trihydroxy-6-(hydroxymethyl)-tetrahydro-2H-pyran-2-yl)methyl)-N,N,5′-trimethylbiphenyl-3-carboxamide]",0.057
13,"CNC(=O)c1cc(C#N)cc(-c2ccc([C@@H](O)[C@H]3O[C@H](CO)[C@@H](O)[C@H](O)[C@@H]3O)c(C)c2)c1 [Example 42, 5-Cyano-4′-((R)-hydroxy ((2R,3S,4S,5S,6R)-3,4,5-trihydroxy-6-(hydroxymethyl)-tetrahydro-2H-pyran-2-yl)methyl)-N,5′-dimethylbiphenyl-3-carboxamide]",0.006
14,"CNC(=O)c1cc(-c2ccc([C@@H](O)[C@H]3O[C@H](CO)[C@@H](O)[C@H](O)[C@@H]3O)c(C)c2)ccc1C#N [Example 43, 4-Cyano-4′-((R)-hydroxy ((2R,3S,4S,5S,6R)-3,4,5-trihydroxy-6-(hydroxymethyl)-tetrahydro-2H-pyran-2-yl)methyl)-N,5′-dimethylbiphenyl-3-carboxamide]",0.006
15,"CNC(=O)c1cccc(-c2ccc([C@@H](N=[N+]=[N-])[C@H]3O[C@H](CO)[C@@H](O)[C@H](O)[C@@H]3O)c(C)c2)c1 [Example 44, 4′-((R)-azido((2R,3S,4R,5S,6R)-3,4,5-trihydroxy-6-(hydroxymethyl)tetrahydro-2H-pyran-2-yl)methyl)-N,3′-dimethylbiphenyl-3-carboxamide]",0.062
16,"CNC(=O)c1cccc(-c2ccc([C@@H](O)[C@H]3O[C@H](CO)[C@@H](O)[C@H](O)[C@@H]3O)c(Cl)c2)c1 [Example 45, 3′-chloro-4′-((R)-hydroxy((2R,3S,4S,5S,6R)-3,4,5-trihydroxy-6-(hydroxymethyl)tetrahydro-2H-pyran-2-yl)methyl)-N-methylbiphenyl-3-carboxamide]",0.047
17,"Cc1cc(-c2ccc(C#N)cc2)ccc1[C@@H](O)[C@H]1O[C@H](CO)[C@@H](O)[C@H](O)[C@@H]1O [Example 46, 4′-((R)-hydroxy((2R,3S,4S,5S,6R)-3,4,5-trihydroxy-6-(hydroxymethyl)tetrahydro-2H-pyran-2-yl)methyl)-3′-methylbiphenyl-4-carbonitrile]",0.053
18,"Cc1cc(N=[N+]=[N-])ccc1[C@@H](O)[C@H]1O[C@H](CO)[C@@H](O)[C@H](O)[C@@H]1O [Example 47, (2R,3S,4S,5S,6R)-2-((R)-(4-azido-2-methylphenyl)(hydroxy)methyl)-6-(hydroxymethyl)tetrahydro-2H-pyran-3,4,5-triol]",0.25
19,"Cc1cc(-n2cc(-c3ccccc3)nn2)ccc1[C@@H](O)[C@H]1O[C@H](CO)[C@@H](O)[C@H](O)[C@@H]1O [Example 48, (2R,3S,4S,5S,6R)-2-((R)-hydroxy(2-methyl-4-(4-phenyl-1H-1,2,3-triazol-1-yl)phenyl)methyl)-6-(hydroxymethyl)tetrahydro-2H-pyran-3,4,5-triol]",0.016
20,"Cc1cc(-n2cc(-c3cccnc3)nn2)ccc1[C@@H](O)[C@H]1O[C@H](CO)[C@@H](O)[C@H](O)[C@@H]1O [Example 49, (2R,3S,4S,5S,6R)-2-((R)-hydroxy(2-methyl-4-(4-(pyridin-3-yl)-1H-1,2,3-triazol-1-yl)-phenyl)methyl)-6-(hydroxymethyl)tetrahydro-2H-pyran-3,4,5-triol]",0.015
21,"Cc1cc(-c2cccc(C#N)c2)ccc1[C@@H](O)[C@H]1O[C@H](CO)[C@@H](O)[C@H](O)[C@@H]1O [Example 51, 4′-((R)-hydroxy((2R,3S,4S,5S,6R)-3,4,5-trihydroxy-6-(hydroxymethyl)tetrahydro-2H-pyran-2-yl)methyl)-3′-methylbiphenyl-3-carbonitrile]",0.026

# Molecular target: T2, FimHL (Escherichia coli, UniProt P08191)
# T2 construct: Purified FimHL (10 μM) in the absence or presence of mannoside (100 μM)
# Experiment: Differential scanning fluorimetry (DSF) with purified FimHL
# Type: binding
# Conditions: FimHL 10 μM with mannoside 100 μM, SYPRO Orange, HEPES pH 7.5; Tm from Boltzmann fit
# Procedure: Purified FimHL (10 μM) in the absence or presence of mannoside (100 μM) was combined with 5×SYPRO Orange in a 50 μl reaction mixture buffered in 20 mM HEPES pH 7.5, 150 mM NaCl (HBS) and 0.4% DMSO. Binding equilibria were established by allowing the reaction mixtures to incubate at 23° C. for 30 min. These reaction mixtures were then placed in 96-well clear-bottom PCR plates and subjected to a melt curve from 20-90° C. in 0.5° C. increments of 15 seconds, each followed by a fluorescence read of the “HEX” channel in a Bio-Rad CFX96 thermocycler (Bio-Rad, Hercules, Calif.). Melt curves were fitted to the Boltzmann equation (y=A2+(A1−A2)/(1+exp((x−xo)/dx)) where xo is the Tm) to determine the melting temperature (Tm) using GraphPad Prism 6 (San Diego Calif.). Melting temperatures are represented as the mean and standard error of two biological replicates, each of which consisted of three technical replicates. Compounds not listed were not tested.
row,SMILES,DSF Melting Temp [°C]
1,"Cc1cc(-c2cccc3cnccc23)ccc1[C@@H](O)[C@H]1O[C@H](CO)[C@@H](O)[C@H](O)[C@@H]1O [Example 1, (2R,3S,4S,5S,6R)-2-((R)-hydroxy(4-(isoquinolin-5-yl)-2-methylphenyl)methyl)-6-(hydroxymethyl)tetrahydro-2H-pyran-3,4,5-triol]",74.6
2,"Cc1cc(-c2ccc3cc[nH]c(=O)c3c2)ccc1[C@@H](O)[C@H]1O[C@H](CO)[C@@H](O)[C@H](O)[C@@H]1O [Example 2, 7-(4-((R)-hydroxy((2R,3S,4S,5S,6R)-3,4,5-trihydroxy-6-(hydroxymethyl)tetrahydro-2H-pyran-2-yl)methyl)-3-methylphenyl)isoquinolin-1 (2H)-one]",77.5
